The values below come from patent publication US6924279B2, “Crystalline 1-methylcarbapenem derivatives” (Sankyo Company, Limited, priority 1999, dated 2005).

The subject of one data set is K. pneumoniae 846. Put plainly: Antibiotic activity test, agar-plate dilution method. Format: cell-based, Klebisella pneumoniae. On the procedure:
(§1) The MIC (μg/ml), the lowest concentration of antibiotic which inhibits growth of the test bacterial strain, was determined by the agar-plate dilution method. The crystalline compounds obtained in Example 1, 2, 4 and 5 of this invention were evaluated against various bacterial strains by determining the MIC of each compound with respect to each strain.

The nature of data set [1]: Stability test in desiccator at 40° C. and 75% relative humidity (HPLC remaining amount). The class given is physicochemical. On the procedure: (§2) The crystalline compounds obtained in Example 1, 2, 4 and 5 were kept for about 2 months in a desiccator at 40° C. and 75% relative humidity and in a desiccator at 60° C. in which silica gel was placed, respectively. The non-crystalline powdered compound (lyophilized product) obtained according to the procedure described in U.S. Pat. No. 6,090,802 Example 72 and in Japanese Patent Application Publication No. Hei-11-071277, which is a reference sample, was kept under the same conditions described above. The remaining amount of the crystalline compounds and the non-crystalline powdered compound were determined after 7, 20, 21, 28, and 56 days by high pressure liquid chromatography on a L-Column ODS (4.6 mm Φ×150 mm, (trade mark) manufactured by Kagakuhinn kennsa kyoukai) eluting with 20 mM KH2PO4 (pH 7.0): CH3CN=96:4 at 1.0 ml/minute at 60° C. using an ultraviolet wave length of 300 nm. The remaining percentages of these compounds were calculated from the remaining amount of them and show in Tables 1-4.

The test system of a further data set is S. aureus 535 (MRSA). As to the kind of experiment: Antibiotic activity test, agar-plate dilution method. Format: cell-based, Staphylococcus aureus. On the procedure:
as §1

Another data set relates to E. coli 609. The description is as above. Format: cell-based, Escherichia coli. On the procedure:
as §1

A further data set has as its system Serratia marcescens 1184. The description is as above. The class given is cell-based. On the procedure:
as §1

Data set [2] concerns Pseudomonas aeruginosa 1001. Described as above. The class given is cell-based. On the procedure: as §1
The test system of data set [3] is Klebisella pneumoniae 806. The data set is described as above. Format: cell-based. On the procedure: as §1
For the next data set, the system named is Escherichia coli NIHJ. The data set is described as above. The class given is cell-based. On the procedure: as §1
Data set [4] has as its system Staphylococcus aureus 209P. The description is as above. The class given is cell-based. On the procedure: as §1
A further data set deals with Enterobacter cloacae 963. Described as above. Format: cell-based. On the procedure:
as §1

Data set [5] is described as follows: Stability test in desiccator at 60° C. in which silica gel was placed (HPLC remaining amount). Format: physicochemical. The note with it: desiccator at 60° C. with silica gel. On the procedure:
as §2

Like-named read-outs stand apart in the source and are kept apart here.

Take `C[C@@H](O)[C@H]1C(=O)N2C(C(=O)O)=C(S[C@H]3C[C@@H](C(=O)N4CC[C@H](NC(=O)CNC(=N)N)C4)N(C)C3)[C@H](C)[C@H]12` [Example 4, (1R,5S,6S)-2-[(2S,4S)-2-[(3S)-3-(2-Guanidinoacetylamino)pyrrolidin-1-ylcarbonyl]-1-methylpyrrolidin-4-ylthio]-6-[(1R)-1-hydroxyethyl]-1-methyl-1-carbapen-2-em-3-carboxylic Acid]: the “Antibiotic activity (MIC)” value with K. pneumoniae 846 is “≦0.01 μg/ml”; in the data set on S. aureus 535 (MRSA) it was 1.5 µg/mL; in the data set with E. coli 609, 0.02 µg/mL; in the data set with Serratia marcescens 1184 it was “≦0.01 μg/ml”; in data set [2], 0.2 µg/mL; in data set [3] it was “≦0.01 μg/ml”. Besides, the “Antibiotic activity (MIC)” value was “≦0.01 μg/ml” in the data set on Escherichia coli NIHJ, “≦0.01 μg/ml” in data set [4] and 0.05 µg/mL in the data set with Enterobacter cloacae 963. For the same compound, the “Remaining percentage of compound” value in data set [1] (After 20 days) is 99.4%; in data set [1] (After 56 days) it was 94.3%; in data set [5] (After 21 days), 100.4%; in data set [5] (After 56 days) it was 100.9%.

For `C[C@@H](O)[C@H]1C(=O)N2C(C(=O)O)=C(S[C@H]3C[C@@H](C(=O)N4CC[C@H](NC(=O)CNC(=N)N)C4)N(C)C3)[C@H](C)[C@H]12` [Example 5, (1R,5S,6S)-2-[(2S,4S)-2-[(3S)-3-(2-Guanidinoacetylamino)pyrrolidin-1-ylcarbonyl]-1-methylpyrrolidin-4-ylthio]-6-[(1R)-1-hydroxyethyl]-1-methyl-1-carbapen-2-em-3-carboxylate.1/4 Ethanol.3/2 Hydrate], the “Remaining percentage of compound” value in data set [1] (After 7 days) is given as 98.9%; in [1] (After 28 days) it was 94.6%; in [1] (After 56 days, Hydrate) it was 83.2%; in [5] (After 7 days) it was 98.3%; in [5] (After 28 days), 97.0%; in data set [5] (After 56 days, Hydrate) it was 97.6%. Also, the “Antibiotic activity (MIC)” value was “≦0.01 μg/ml” in the data set on E. coli 609 (Hydrate) and 0.39 µg/mL in data set [2] (Hydrate).

Turning to `CCO.C[C@@H](O)[C@H]1C(=O)N2C(C(=O)O)=C(S[C@H]3C[C@@H](C(=O)N4CC[C@H](NC(=O)CNC(=N)N)C4)N(C)C3)[C@H](C)[C@H]12.O=C(O)O` [Example 1, (1R,5S,6S)-2-[(2S,4S)-2-[(3S)-3-(2-Guanidinoacetylamino)pyrrolidin-1-ylcarbonyl]-1-methylpyrrolidin-4-ylthio]-6-[(1R)-1-hydroxyethyl]-1-methyl-1-carbapen-2-em-3-carboxylic acid.1/2 Carbonate.1/2 Ethanol], the “Antibiotic activity (MIC)” value in the data set on K. pneumoniae 846 was “≦0.01 μg/ml”; with S. aureus 535 (MRSA), 1.5 µg/mL; with E. coli 609 it was 0.02 µg/mL; in the data set on Serratia marcescens 1184, “≦0.01 μg/ml”; in [2], 0.2 µg/mL; in data set [3] it was “≦0.01 μg/ml”. For the same compound, the “Antibiotic activity (MIC)” value with Escherichia coli NIHJ was “≦0.01 μg/ml”; in data set [4], “≦0.01 μg/ml”; with Enterobacter cloacae 963 it was 0.05 µg/mL. In addition, the “Remaining percentage of compound” value amounted to 98.5% in data set [1] (After 20 days), 92.9% in data set [1] (After 56 days), 98.5% in data set [5] (After 21 days) and 96.4% in data set [5] (After 56 days).

Take `CCO.C[C@@H](O)[C@H]1C(=O)N2C(C(=O)O)=C(S[C@H]3C[C@@H](C(=O)N4CC[C@H](NC(=O)CNC(=N)N)C4)N(C)C3)[C@H](C)[C@H]12.C[C@@H](O)[C@H]1C(=O)N2C(C(=O)O)=C(S[C@H]3C[C@@H](C(=O)N4CC[C@H](NC(=O)CNC(=N)N)C4)N(C)C3)[C@H](C)[C@H]12` [Example 2, (1R,5S,6S)-2-[(2S,4S)-2-[(3S)-3-(2-Guanidinoacetylamino)pyrrolidin-1-ylcarbonyl]-1-methylpyrrolidin-4-ylthio]-6-[(1R)-1-hydroxyethyl]-1-methyl-1-carbapen-2-em-3-carboxylic Acid.1/2 Ethanol]: the “Antibiotic activity (MIC)” value in the data set with K. pneumoniae 846 is “≦0.01 μg/ml”; with S. aureus 535 (MRSA), 1.5 µg/mL; in the data set with E. coli 609, “≦0.01 μg/ml”; with Serratia marcescens 1184 it was “≦0.01 μg/ml”; in [2] it was 0.2 µg/mL; in data set [3], “≦0.01 μg/ml”. In addition, the “Antibiotic activity (MIC)” value in the data set on Escherichia coli NIHJ was “≦0.01 μg/ml”; in [4], “≦0.01 μg/ml”; in the data set with Enterobacter cloacae 963, 0.05 µg/mL. In addition, the “Remaining percentage of compound” value in data set [1] (After 20 days) amounted to 95.8%; in data set [1] (After 56 days), 87.3%; in data set [5] (After 21 days), 100.1%; in data set [5] (After 56 days), 96.8%.
